Results as given in publication PMC8619673 (Cells, 2021).

Experiments:
Aβ42 peptide = biological target: T1, Aβ42 peptide (Homo sapiens, UniProt P05067); test: Thioflavin T aggregation assay; assay type: biochemical
T1 construct: Aβ42 peptide (10 μM; Kelowna Int’l Scientific Inc., New Taipei City, Taiwan); purchased Kelowna Int’l Scientific Inc., New Taipei City, Taiwan
Protocol: To form Aβ aggregation, Aβ42 peptide (10 μM; Kelowna Int’l Scientific Inc., New Taipei City, Taiwan) was incubated with tested compounds (5–20 μM) in 150 mM NaCl and 20 mM Tris-HCl (pH8.0) at 37 °C for 48 h. Thioflavin T (10 μM; Sigma-Aldrich) was added to the Aβ mixture and incubated at room temperature for 5 min. The fluorescence intensity was recorded at 420 nm excitation and 485 nm emission by an FLx800 microplate reader (Bio-Tek, Winooski, VT, USA). Half maximal effective concentration (EC50) was estimated by a method of interpolation.

CREB = test: Western blot, p-CREB; assay type: cell-based, Human; settings: 5 µM; induced untreated 81%
Protocol: (§1) Cellular proteins were prepared using a lysis buffer containing NaCl (150 mM), ethylene diamine tetraacetic acid (EDTA, 1 mM, pH8.0), Tris-HCl (50 mM, pH8.0), ethylene glycol tetraacetic acid (EGTA, 1 mM, pH8.0), sodium dodecyl sulfate (SDS, 0.1%), sodium deoxycholate (SD, 0.5%), Triton X-100 (1%), and protease (Sigma-Aldrich), and phosphatase (Abcam, Cambridge, MA, USA) inhibitor cocktails. After quantitation by protein assay kit (Bio-Rad, Hercules, CA, USA), 20 µg proteins were separated by SDS-polyacrylamide (10%) gel electrophoresis and transferred to polyvinylidene difluoride (PVDF) membranes (Sigma-Aldrich) using a Mini Trans-Blot cell (Bio-Rad). After blocking, the membrane was probed with anti-TRKB, anti-p-TRKB (Y516), anti-p-TRKB (Y817) (1:500; Cell Signaling, Danvers, MA, USA), anti-ERK, anti-p-ERK (T202/Y204) (1:1000; Cell Signaling), anti-AKT, anti-p-AKT (S473) (1:1000; Cell Signaling), anti-CREB, anti-p-CREB (S133) (1:1000; Millipore, Billerica, MA, USA), anti-BDNF, anti-BCL2 (1:500; Santa Cruz Biotechnology, Santa Cruz, CA, USA), anti-BAX (1:1000; Cell Signaling), anti-β-tubulin (1:500; Sigma-Aldrich), or anti-GAPDH (1:1000, MDBio, Taipei, Taiwan) antibody. The immune complexes were detected using goat anti-mouse or goat anti-rabbit IgG antibody conjugated with horseradish peroxidase (1:5000; GeneTex, Irvine, CA, USA) and chemiluminescent substrate (Millipore).

ERK = test: Western blot, p-ERK; assay type: cell-based, Human; settings: 5 µM; induced untreated 79%
Protocol: as §1

Aβ-GFP RNA = test: Real-time PCR of Aβ-GFP RNA; assay type: cell-based, Human; settings: 5 μM; untreated 28.6; not significantly affected
Source text: RNA was extracted using TRIzol reagent (Invitrogen, Carlsbad, CA, USA), followed by treatment with DNase I (Stratagene, La Jolla, CA, USA). cDNA was synthesized by SuperScript™ III reverse transcriptase (Invitrogen) according to manufacturer’s instruction and used to determine Aβ-GFP mRNA expression by StepOnePlus™ Real-time PCR system (Applied Biosystems, Foster City, CA, USA) using customized GFP primers (forward primer: 5′-[…]-3′, reverse primer: 5′-[…]-3′), FAM/NFQ probe (5′-[…]-3′), and TaqMan hypoxanthine phosphoribosyltransferase 1 (HPRT1) endogenous control (VIC/MGB probe, 4326321E) (Applied Biosystems). Fold change was calculated using the formula 2^ΔCt, ΔCT = CT (HPRT1)—CT (GFP), in which CT indicates the number of threshold cycles.

BCL2 = test: Western blot, BCL2; assay type: cell-based, Human; settings: 5 µM; induced untreated 72%
Protocol: as §1

[1] = 1,1-diphenyl-2-picrylhydrazyl radical scavenging; settings: data not shown
AKT = test: Western blot, p-AKT; assay type: cell-based, Human; settings: 5 µM; induced untreated 81%
Protocol: as §1

Aβ-GFP SH-SY5Y cells = test: Neurite outgrowth analysis; assay type: cell-based, Human; settings: 5 µM; for Neurite total length: induced untreated 23.9, uninduced 31.2; for Neurite length: untreated 25.3
Protocol: Aβ-GFP SH-SY5Y cells (6 × 10^4 cells) were seeded on a 24-well plate with retinoic acid (10 µM) on day 1. Tested coumarins (5 µM) and doxycycline (5 μg/mL) were added on day 2, as described. On day 8, the cells were washed with phosphate-buffered saline (PBS) twice and fixed in 4% paraformaldehyde at 4 °C for 15 min. Cells were permeabilized with Triton X-100 (0.1%) for 10 min, blocked with bovine serum albumin (3%) for 20 min, and stained with anti-neuronal TUBB3 antibody (1:1000; Covance, Princeton, NJ, USA) at 4 °C overnight. The next day, cells were washed with PBS twice and stained by a secondary donkey anti-rabbit Alexa Fluor® 555 antibody (1:1000; Thermo Fisher Scientific) and 4′,6-diamidino-2-phenylindole (DAPI; 0.1 µg/mL; Sigma-Aldrich) at room temperature for 1 h. Neuronal images from at least 60 individual fields (150–250 neurons per field) per experiment were captured at excitation 531/40 nm and emission 593/40 nm wavelengths using an ImageXpress micro confocal high-content imaging system (Molecular Devices). Neurite total length (μm) and numbers of process (the number of primary neurites originated from the cell body of a neuron) and branch (the number of secondary neurites extended from primary neurites) were analyzed using a MetaXpress neurite outgrowth application module (Molecular Devices). For each sample, around 6000 cells were analyzed in each of three independent experiments.
Lentiviral short hairpin RNA (shRNA) targeting TRKB (TRCN0000002243, TRCN0000002245, and TRCN0000002246) and a negative-scrambled control (TRC2.Void) were obtained from the National RNAi Core Facility, IMB/GRC, Academia Sinica (Taipei, Taiwan). As described, cells were plated on 6- or 24-well plates, with retinoic acid added on day 1. Cells were infected with lentivirus (multiplicity of infection, 3 for each shRNA), with polybrene (8 µg/mL; Sigma-Aldrich) on the next day. Cells were pretreated with tested compounds (5 µM) for 8 h after changing medium, followed by doxycycline on day 3. Cells were collected for further analysis on day 9. The hairpin sequences of targeting shRNA were below: • TRCN0000002243: 5’-[…]ctcgag[…]-3’ • TRCN0000002245: 5’-[…]ctcgagATGTT-[…]-3’ • TRCN0000002246: 5’-[…]ctcgag[…]-3’ • TRC2.Void: 5’-[…]ctcgag[…]-3’

[2] = TRKB shRNA-infected cells, untreated 2.9
[3] = induced untreated 1.8, uninduced 2.8
[4] = induced untreated 3.3, uninduced 4.4
[5] = scrambled shRNA-infected cells, untreated 2.4
[6] = scrambled shRNA-infected cells, untreated 3.5

T1 sequence (P05067 672-713 limits assumed): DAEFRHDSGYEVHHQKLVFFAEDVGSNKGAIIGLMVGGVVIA

Row | SMILES | Aβ aggregation inhibition (in words) (Aβ42 peptide; compound 20 μM, thioflavin T assay) | p-CREB (S133) protein level relative to uninduced cells (100%) (CREB) | p-ERK (T202/Y204) protein level relative to uninduced cells (100%) (ERK) | Relative Aβ-GFP/HPRT1 RNA level (Aβ-GFP RNA) | BCL2 protein level relative to uninduced cells (100%) (BCL2) | 1,1-diphenyl-2-picrylhydrazyl radical scavenging activity [1] | p-AKT (S473) protein level relative to uninduced cells (100%) (AKT) | Neurite process number (Aβ-GFP SH-SY5Y cells; [2]) | Neurite branch number (Aβ-GFP SH-SY5Y cells; [3]) | Neurite process number (Aβ-GFP SH-SY5Y cells; [4]) | Neurite total length (Aβ-GFP SH-SY5Y cells) | Neurite branch number (Aβ-GFP SH-SY5Y cells; [5]) | Neurite process number (Aβ-GFP SH-SY5Y cells; [6]) | Neurite length (Aβ-GFP SH-SY5Y cells; scrambled shRNA-infected cells) | Thioflavin T fluorescence (Aβ aggregation) (Aβ42 peptide; compound 20 µM, Aβ42 10 μM, 37 °C 2 days, 621 AU without compound, 151 AU without incubation)
1 | CCOC(=O)c1cc2c(O)cccc2oc1=O [ZN014, ethyl 5-hydroxy-2-oxo-2H-chromene-3-carboxylate] | did not inhibit Aβ aggregation | 98–101% | 95–107% | 29.2–30.0 folds of induction | 104–116% | no 1,1-diphenyl-2-picrylhydrazyl radical scavenging activity | 91–110% | 3.5 | 2.4–2.5 | 4.2–4.3 | 29.1–29.3 μm | 3.0–3.1 | 3.9–4.0 | 30.7–30.9 µm | –
2 | O=C(/C=C/c1ccccc1O)c1c(O)c2ccccc2oc1=O [ZN015, (E)-4-hydroxy-3-(3-(2-hydroxyphenyl)acryloyl)-2H-chromen-2-one] | – | 98–101% | 95–107% | 29.2–30.0 folds of induction | 104–116% | no 1,1-diphenyl-2-picrylhydrazyl radical scavenging activity | 91–110% | 3.5 | 2.4–2.5 | 4.2–4.3 | 29.1–29.3 μm | 3.0–3.1 | 3.9–4.0 | 30.7–30.9 µm | 403 AU
